One experiment has as its target T1, H-2 K^d (Mus musculus, UniProt P01902).
T1 sequence (P01902 22-368): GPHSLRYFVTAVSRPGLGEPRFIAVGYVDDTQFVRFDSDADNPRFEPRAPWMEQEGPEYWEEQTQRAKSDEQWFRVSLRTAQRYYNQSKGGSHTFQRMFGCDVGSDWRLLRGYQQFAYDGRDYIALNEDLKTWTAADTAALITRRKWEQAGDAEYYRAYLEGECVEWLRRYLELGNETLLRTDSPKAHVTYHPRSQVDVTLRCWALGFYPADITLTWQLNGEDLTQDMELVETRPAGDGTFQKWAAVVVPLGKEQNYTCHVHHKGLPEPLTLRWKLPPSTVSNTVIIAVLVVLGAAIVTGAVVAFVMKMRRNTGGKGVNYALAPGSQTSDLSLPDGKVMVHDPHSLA
T1 sequence (P01887 21-119 partner): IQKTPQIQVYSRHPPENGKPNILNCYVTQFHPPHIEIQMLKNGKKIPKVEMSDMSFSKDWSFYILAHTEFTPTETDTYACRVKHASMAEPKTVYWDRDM
The experiment in a line: Binding assays: inhibition of binding of a radiolabeled standard peptide to purified MHC molecules. The procedure:
Binding assays. Binding of peptides to H-2 K^d was determined using quantitative assays based on the inhibition of binding of a radiolabeled standard peptide to purified MHC molecules essentially as described previously. […] Under the conditions utilized, where [label]<[MHC] and IC50≥[MHC], the measured IC50 values are reasonable approximations of the dissociation constant values.

In another experiment the test system is CD8+ cells. In words: IFNγ ELISPOT on CD8+ cells of immunized mice. The following applies: for ELISpot: mice immunized with mutant peptide; for CD8 T cell response of immunized mice: ELISPOT. The class given is in vivo, BALB/c mice. The procedure:
For the ELISPOT assays, the negative controls were CD8+ cells from immunized mice without peptide stimulation. […] The magnitude of responses was rated by mean spot numbers per million CD8+ cells: 5-10 (+); 11-20 (++); 21-50 (+++); 51-100(++++) and >100(+++++).
All 18 peptides were used to immunize BALB/c mice. The draining lymph nodes (dLNs) of immunized mice were harvested one week after the single immunization, and the cells were stimulated in vitro for 16 h without any added peptide, the mutant peptide used for immunization, or the corresponding wild type peptide. The CD8+ cells were analyzed for activation (CD44+) and effector function (intracellular IFNγ+). (see Materials and Methods regarding the details of FACS analysis.) All possible patterns of immune-reactivity were observed (FIG. 3A): no immune response (12/18), a mutant peptide-specific, i.e. tumor-specific immune response (5/18), and a cross-reactive response between the mutant and corresponding wild type peptides (1/18).

The mark [1] stands for this setting: mutant peptide, read-out: Measured IC50 for K^d (Mut/WT): Mut.
Setting [2] is: WT counterpart peptide, read-out: Measured IC50 for K^d (Mut/WT): WT.

The structures appear in SMILES notation. “Also recorded” adds a separate entry of the source. Where two headings read alike, the source gives them in different places. Peptide text beside a SMILES is read from it.

For the compound `CC[C@H](C)[C@H](NC(=O)[C@H](CS)NC(=O)CNC(=O)[C@H](Cc1c[nH]cn1)NC(=O)[C@H](Cc1ccccc1)NC(=O)CN)C(=O)N[C@@H](Cc1c[nH]cn1)C(=O)N[C@@H](CCC(=O)O)C(=O)N[C@H](C(=O)N[C@@H](CC(C)C)C(=O)O)C(C)C` [Slit3] (H-GFHGCIHEVL-OH), the IC50 at H-2 K^d (mutant neo-epitopes, read-out: measured IC50 / affinity for binding to K^d) was about 50 µM.

Regarding `CC(C)C[C@H](N)C(=O)N[C@@H](Cc1ccc(O)cc1)C(=O)N[C@@H](CC(=O)O)C(=O)N[C@H](C(=O)N[C@@H](CC(=O)O)C(=O)N[C@@H](C)C(=O)N[C@@H](C)C(=O)N[C@@H](Cc1ccccc1)C(=O)O)C(C)C` [Cpsf2, L(y/D)DVDAAF] (H-LYDVDAAF-OH), the ELISpot entry in the experiment with CD8+ cells is on record as “+++ (21-50 spots/10^6 CD8 = +++)”. For the same compound, the IC50 on H-2 K^d is over 70 µM; at H-2 K^d (setting [1]), 1.41 µM.

Regarding `CC[C@H](C)[C@H](NC(=O)[C@H](C)NC(=O)[C@H](Cc1ccc(O)cc1)NC(=O)[C@H](CCC(N)=O)NC(=O)[C@@H](NC(=O)[C@H](CC(C)C)NC(=O)[C@H](Cc1ccc(O)cc1)NC(=O)[C@@H]1CCCN1)[C@@H](C)O)C(=O)O` [Dhx8.2, P(y/D)LTQYAI] (H-PYLTQYAI-OH; N-terminus and C-terminus assumed), the ELISpot result in the experiment with CD8+ cells was “+++++ (>100 spots/10^6 CD8 = +++++)”.

`CC(C)C[C@H](NC(=O)[C@H](CCCNC(=N)N)NC(=O)[C@@H]1CCCN1C(=O)[C@H](CO)NC(=O)[C@H](CCCNC(=N)N)NC(=O)[C@H](Cc1ccc(O)cc1)NC(=O)[C@H](CCC(N)=O)NC(=O)[C@H](CCCNC(=N)N)NC(=O)[C@H](CCC(N)=O)NC(=O)[C@H](CC(C)C)NC(=O)[C@@H](N)CCCCN)C(=O)O` [Mast2] (H-KLQRQYRSPRL-OH): at H-2 K^d, the IC50 is 8.51 µM.

The compound `CC[C@H](C)[C@H](NC(=O)[C@H](CS)NC(=O)[C@H](CC(C)C)NC(=O)[C@H](C)NC(=O)[C@H](CCC(N)=O)NC(=O)[C@H](CC(C)C)NC(=O)[C@H](CCSC)NC(=O)[C@H](Cc1ccc(O)cc1)NC(=O)[C@@H](N)CO)C(=O)N1CCC[C@H]1C(=O)O` [Tnpo3.3] (H-SYMLQALCIP-OH) registered an IC50 on H-2 K^d of 0.111 µM.

On to `CC(C)C[C@H](NC(=O)[C@H](CCC(=O)O)NC(=O)[C@H](Cc1c[nH]c2ccccc12)NC(=O)[C@H](CS)NC(=O)[C@@H](NC(=O)[C@H](CCC(=O)O)NC(=O)[C@H](CS)NC(=O)[C@H](Cc1ccc(O)cc1)NC(=O)[C@H](C)N)[C@@H](C)O)C(=O)O` [Apc] (H-AYCETCWEL-OH), for which the ELISpot entry with CD8+ cells is given as “+++++ (>100 spots/106 CD8 = +++++)”. Further, at H-2 K^d (setting [2]), the IC50 was found to be 0.06 µM.

In the case of `CC[C@H](C)[C@H](NC(=O)[C@H](C)NC(=O)[C@H](Cc1ccc(O)cc1)NC(=O)[C@H](CCC(N)=O)NC(=O)[C@@H](NC(=O)[C@H](CC(C)C)NC(=O)[C@H](Cc1ccc(O)cc1)NC(=O)[C@@H]1CCCN1)[C@@H](C)O)C(=O)N[C@H](C(=O)N[C@@H](CCSC)C(=O)O)[C@@H](C)CC` [Dhx8.4] (H-PYLTQYAIIM-OH), the ELISpot result in the experiment with CD8+ cells is given as “+++ (21-50 spots/10^6 CD8 = +++)”. Further, the values for the IC50 at H-2 K^d and at H-2 K^d (setting [1]) were 6.26 µM and 6.57 µM, respectively.

For `CC[C@H](C)[C@H](NC(=O)[C@H](C)NC(=O)[C@H](Cc1ccc(O)cc1)NC(=O)[C@H](CCC(N)=O)NC(=O)[C@@H](NC(=O)[C@H](CC(C)C)NC(=O)[C@H](Cc1ccc(O)cc1)NC(=O)[C@@H]1CCCN1)[C@@H](C)O)C(=O)N[C@H](C(=O)N[C@@H](CCSC)C(=O)N[C@@H](CC(C)C)C(=O)O)[C@@H](C)CC` [Dhx8.1] (H-PYLTQYAIIML-OH), in the experiment on CD8+ cells, the ELISpot entry is “+++++ (>100 spots/10^6 CD8 = +++++)”. For the same compound, the IC50 at H-2 K^d was found to be 1.65 µM; on H-2 K^d (setting [1]) it was 2.19 µM.

Take `CSCC[C@H](NC(=O)[C@@H]1CCCN1C(=O)[C@@H](NC(=O)[C@H](Cc1ccc(O)cc1)NC(=O)[C@@H](N)CC(=O)O)C(C)C)C(=O)N[C@@H](CCC(=O)O)C(=O)N[C@@H](CCC(N)=O)C(=O)N1CCC[C@H]1C(=O)N[C@@H](CCCNC(=N)N)C(=O)N1CCC[C@H]1C(=O)O` [Alkbh6.3] (H-DYVPMEQPRP-OH; N-terminus and C-terminus assumed): the IC50 at H-2 K^d (setting [2]) is 23.6 µM.

`CC(C)C[C@H](NC(=O)[C@H](CC(=O)O)NC(=O)[C@H](CC(C)C)NC(=O)[C@H](Cc1ccc(O)cc1)NC(=O)[C@@H](N)CCC(=O)O)C(=O)N[C@@H](CCC(N)=O)C(=O)N[C@H](C(=O)N[C@@H](CCC(N)=O)C(=O)O)[C@@H](C)O` [Zfp236.1, E(y/D)LDLQTQ] (H-EYLDLQTQ-OH) had an IC50 at H-2 K^d of over 70 µM.

As for `CSCC[C@H](NC(=O)[C@@H]1CCCN1C(=O)[C@@H](NC(=O)[C@H](Cc1ccc(O)cc1)NC(=O)[C@@H](N)CC(=O)O)C(C)C)C(=O)N[C@@H](CCC(=O)O)C(=O)N[C@@H](CCC(N)=O)C(=O)N1CCC[C@H]1C(=O)O` [Alkbh6.1, D(y/D)VPMEQP] (H-DYVPMEQP-OH), the IC50 on H-2 K^d is over 70 µM; at H-2 K^d (setting [1]), 60.9 µM.

On H-2 K^d, `CSCC[C@H](NC(=O)[C@H](Cc1ccc(O)cc1)NC(=O)[C@@H](N)CO)C(=O)N[C@@H](CC(C)C)C(=O)N[C@@H](CCC(N)=O)C(=O)N[C@@H](C)C(=O)N[C@@H](CC(C)C)C(=O)N[C@@H](CS)C(=O)O` [Tnpo3.4, (sy/LD)MLQALC] (H-SYMLQALC-OH) gave an IC50 of 0.089 µM.

As to `CC[C@H](C)[C@H](NC(=O)[C@@H](NC(=O)[C@H](C)NC(=O)[C@H](Cc1ccc(O)cc1)NC(=O)[C@H](CCC(N)=O)NC(=O)[C@@H](NC(=O)[C@H](CC(C)C)NC(=O)[C@H](Cc1ccc(O)cc1)NC(=O)[C@@H]1CCCN1)[C@@H](C)O)[C@@H](C)CC)C(=O)O` [Dhx8.3, P(y/D)LTQYAII] (H-PYLTQYAII-OH), in the experiment with CD8+ cells, the ELISpot entry is listed as “+++++ (>100 spots/10^6 CD8 = +++++)”. For the same compound, the IC50 on H-2 K^d worked out at 1.42 µM; at H-2 K^d (setting [1]) it was 0.244 µM.

As for `CSCC[C@H](NC(=O)[C@H](CC(C)C)NC(=O)CNC(=O)[C@@H]1CCCN1C(=O)[C@H](Cc1ccccc1)NC(=O)[C@@H](N)C(C)C)C(=O)N[C@@H](CCC(=O)O)C(=O)N[C@@H](CC(C)C)C(=O)O` [Atxn10.2, VFPGLME(l/R)] (H-VFPGLMEL-OH; N-terminus and C-terminus assumed), the “CD8 T cell response of immunized mice” value in the experiment on CD8+ cells (text) was “did not elicit a detectable response at all”; in the experiment with CD8+ cells (text, listed as Atxn 10.2), “did not elicit a detectable CD8 response”. Besides, on H-2 K^d (setting [2]), the IC50 worked out at 1.11 µM.

Consider `CC(C)C[C@H](NC(=O)CNC(=O)[C@H](CC(C)C)NC(=O)[C@H](CC(C)C)NC(=O)[C@H](CO)NC(=O)[C@H](CCCNC(=N)N)NC(=O)[C@H](CCCNC(=N)N)NC(=O)[C@H](CO)NC(=O)[C@H](CO)NC(=O)[C@H](Cc1c[nH]c2ccccc12)NC(=O)[C@@H](N)CO)C(=O)O` [9430016H08Rik] (H-SWSSRRSLLGL-OH), for which the IC50 at H-2 K^d (WT counterpart peptide, read-out: Measured IC50 for K^d (Mut/WT): WT, class symbol) is over 70 µM.

For the compound `CC(C)C[C@H](NC(=O)[C@H](CC(=O)O)NC(=O)[C@H](CC(C)C)NC(=O)[C@H](Cc1ccc(O)cc1)NC(=O)[C@@H](N)CCC(=O)O)C(=O)N[C@@H](CCC(N)=O)C(=O)N[C@H](C(=O)N[C@@H](CCC(N)=O)C(=O)NCC(=O)O)[C@@H](C)O` [Zfp236.2, E(y/D)LDLQTQG] (H-EYLDLQTQG-OH), the IC50 at H-2 K^d is over 70 µM.

For the compound `CC(C)C[C@H](NC(=O)[C@H](CCC(=O)O)NC(=O)[C@H](CC(=O)O)NC(=O)[C@H](CCC(=O)O)NC(=O)[C@H](CC(C)C)NC(=O)[C@H](CC(C)C)NC(=O)CNC(=O)[C@H](CCC(N)=O)NC(=O)[C@H](CC(C)C)NC(=O)[C@@H](N)CCC(=O)O)C(=O)O` [Ccdc136] (H-ELQGLLEDEL-OH; N-terminus and C-terminus assumed), the “CD8 T cell response of immunized mice” value in the experiment on CD8+ cells is “did not elicit a detectable response at all; also recorded: did not elicit a detectable CD8 response”. Moreover, the IC50 on H-2 K^d (setting [2]) was found to be 4.54 µM.

The record behind these values is patent US11338026B2, “Identification of immunologically protective neo-epitopes for the treatment of cancers” (THE UNIVERSITY OF CONNECTICUT, priority 2014, dated 2022).
